From US12396981B2 (priority 2023, dated 2025)
Several values for one entry are separate records, joined by “and”; a condition that tells them apart may be missing. Equal values may be shown once.

Key:
[1] = Mystical Experience Questionnaire (MEQ30) after inhaling DMT according to a disclosed method; assay type: in vivo, human
Text: (§1) The study included nine participants with the following demographic characteristics:
(§2) For the MEQ and CEQ higher scores indicate a more mystical experience and a more challenging experience, respectively.

[2] = Challenging Experience Questionnaire (CEQ) after inhaling DMT according to a disclosed method; assay type: in vivo, human
Text: as §1, §2

[3] = biological target: 5-HT1B (Homo sapiens, UniProt P28222); conditions: Halberstadt & Geyer 2011; cited from earlier work
[4] = biological target: 5-HT1D (Homo sapiens, UniProt P28221); conditions: Halberstadt & Geyer 2011; cited from earlier work
[5] = biological target: 5-HT1E (Homo sapiens, UniProt P28566); conditions: Halberstadt & Geyer 2011; cited from earlier work
[6] = biological target: 5-HT2A (Homo sapiens, UniProt P28223); conditions: Halberstadt & Geyer 2011; cited from earlier work
[7] = biological target: 5-HT5A (Homo sapiens, UniProt P47898); conditions: Halberstadt & Geyer 2011; cited from earlier work
[8] = biological target: 5-HT6 (Homo sapiens, UniProt P50406); conditions: Halberstadt & Geyer 2011; cited from earlier work
[9] = biological target: 5-HT7 (Homo sapiens, UniProt P34969); conditions: Halberstadt & Geyer 2011; cited from earlier work
[10] = biological target: sigma-1 receptor (Homo sapiens, UniProt Q99720); conditions: Fontanilla 2009; Ray 2010; cited from earlier work
[11] = biological target: Tropomyosin receptor kinase B (TrkB) (Homo sapiens, UniProt Q16620); conditions: Moliner 2023; cited from earlier work
[12] = cited from earlier work
[13] = comparable to psilocin; Jones 2024; cited from earlier work
[14] = cited from earlier work; remark: listed apart in the source
[15] = system: NMDA receptors; conditions: Moliner 2023; cited from earlier work
[16] = MEQ30 item score, c1-c9 = participants 1-9, after inhaled DMT per disclosed method
[17] = mean item score per participant, r7-r15 = participants 1-9
[18] = mean over the nine participants
[19] = total per participant, r7-r15 = participants 1-9
[20] = per participant, r8-r16 = participants 1-9

Tropomyosin receptor kinase B (TrkB), sequence (Q16620 32-822, species assumed): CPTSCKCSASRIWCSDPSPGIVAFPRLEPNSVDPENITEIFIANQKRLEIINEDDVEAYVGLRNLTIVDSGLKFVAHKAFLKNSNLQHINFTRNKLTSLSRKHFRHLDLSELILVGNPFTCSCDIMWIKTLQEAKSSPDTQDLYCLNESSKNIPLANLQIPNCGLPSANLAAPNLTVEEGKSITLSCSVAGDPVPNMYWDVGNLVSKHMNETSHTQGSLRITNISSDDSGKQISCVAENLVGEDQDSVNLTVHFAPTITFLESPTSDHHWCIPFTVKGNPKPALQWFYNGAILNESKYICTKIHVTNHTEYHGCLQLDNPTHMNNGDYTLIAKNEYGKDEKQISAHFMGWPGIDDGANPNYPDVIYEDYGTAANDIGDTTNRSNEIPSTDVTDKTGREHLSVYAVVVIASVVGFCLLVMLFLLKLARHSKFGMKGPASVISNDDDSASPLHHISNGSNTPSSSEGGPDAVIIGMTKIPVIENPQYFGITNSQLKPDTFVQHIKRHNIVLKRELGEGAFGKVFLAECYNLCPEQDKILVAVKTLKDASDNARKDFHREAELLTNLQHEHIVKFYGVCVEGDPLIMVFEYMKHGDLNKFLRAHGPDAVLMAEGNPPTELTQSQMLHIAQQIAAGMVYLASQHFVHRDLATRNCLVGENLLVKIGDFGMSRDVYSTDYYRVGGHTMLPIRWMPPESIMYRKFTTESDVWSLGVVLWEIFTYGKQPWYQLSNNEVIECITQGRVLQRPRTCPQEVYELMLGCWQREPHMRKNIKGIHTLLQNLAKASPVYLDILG
5-HT1D, sequence (P28221 whole entry, species assumed): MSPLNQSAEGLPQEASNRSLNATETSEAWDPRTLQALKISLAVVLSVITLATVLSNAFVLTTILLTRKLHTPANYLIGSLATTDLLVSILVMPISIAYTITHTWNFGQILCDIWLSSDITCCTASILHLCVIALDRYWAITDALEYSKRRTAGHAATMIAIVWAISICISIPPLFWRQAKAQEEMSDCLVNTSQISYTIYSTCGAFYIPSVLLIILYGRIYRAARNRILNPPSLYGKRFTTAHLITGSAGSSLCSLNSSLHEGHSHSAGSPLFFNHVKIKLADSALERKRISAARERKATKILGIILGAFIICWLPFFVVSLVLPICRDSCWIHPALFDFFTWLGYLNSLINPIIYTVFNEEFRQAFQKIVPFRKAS
5-HT1B, sequence (P28222 whole entry, species assumed): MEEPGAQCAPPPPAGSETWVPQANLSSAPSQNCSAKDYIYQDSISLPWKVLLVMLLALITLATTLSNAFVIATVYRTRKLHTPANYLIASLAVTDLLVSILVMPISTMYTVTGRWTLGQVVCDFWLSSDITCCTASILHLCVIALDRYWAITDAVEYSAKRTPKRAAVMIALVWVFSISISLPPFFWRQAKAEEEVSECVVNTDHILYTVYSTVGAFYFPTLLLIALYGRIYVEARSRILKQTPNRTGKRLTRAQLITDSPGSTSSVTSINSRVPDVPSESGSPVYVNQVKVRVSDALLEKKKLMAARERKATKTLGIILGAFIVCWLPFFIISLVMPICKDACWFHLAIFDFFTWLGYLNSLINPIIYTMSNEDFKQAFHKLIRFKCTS
sigma-1 receptor, sequence (Q99720 whole entry, species assumed): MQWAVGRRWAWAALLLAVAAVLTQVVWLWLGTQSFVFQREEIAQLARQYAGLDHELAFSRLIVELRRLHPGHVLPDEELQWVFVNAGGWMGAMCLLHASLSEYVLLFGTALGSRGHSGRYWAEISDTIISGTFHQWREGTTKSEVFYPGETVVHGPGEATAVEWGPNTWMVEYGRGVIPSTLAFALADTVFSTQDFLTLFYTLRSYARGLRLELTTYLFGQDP
5-HT1E, sequence (P28566 whole entry, species assumed): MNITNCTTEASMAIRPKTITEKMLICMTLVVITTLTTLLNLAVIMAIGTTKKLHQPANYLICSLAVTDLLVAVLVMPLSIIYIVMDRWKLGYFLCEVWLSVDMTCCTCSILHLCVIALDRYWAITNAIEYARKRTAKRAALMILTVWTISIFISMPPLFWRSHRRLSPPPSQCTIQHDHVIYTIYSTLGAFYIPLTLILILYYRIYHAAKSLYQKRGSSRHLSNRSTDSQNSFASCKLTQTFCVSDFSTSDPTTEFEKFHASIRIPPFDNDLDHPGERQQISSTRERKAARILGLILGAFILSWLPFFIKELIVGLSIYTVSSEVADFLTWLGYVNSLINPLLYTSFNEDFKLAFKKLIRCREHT
5-HT5A, sequence (P47898 whole entry, species assumed): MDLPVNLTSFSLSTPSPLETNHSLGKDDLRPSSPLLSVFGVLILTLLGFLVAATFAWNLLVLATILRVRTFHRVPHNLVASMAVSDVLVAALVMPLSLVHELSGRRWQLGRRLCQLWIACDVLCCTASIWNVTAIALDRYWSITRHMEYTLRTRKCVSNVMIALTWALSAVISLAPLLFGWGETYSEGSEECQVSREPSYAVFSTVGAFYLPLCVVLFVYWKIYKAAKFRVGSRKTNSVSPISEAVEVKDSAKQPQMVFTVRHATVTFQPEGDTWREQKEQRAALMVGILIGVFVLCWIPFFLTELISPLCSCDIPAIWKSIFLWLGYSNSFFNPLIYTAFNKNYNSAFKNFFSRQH
5-HT2A, sequence (P28223 whole entry): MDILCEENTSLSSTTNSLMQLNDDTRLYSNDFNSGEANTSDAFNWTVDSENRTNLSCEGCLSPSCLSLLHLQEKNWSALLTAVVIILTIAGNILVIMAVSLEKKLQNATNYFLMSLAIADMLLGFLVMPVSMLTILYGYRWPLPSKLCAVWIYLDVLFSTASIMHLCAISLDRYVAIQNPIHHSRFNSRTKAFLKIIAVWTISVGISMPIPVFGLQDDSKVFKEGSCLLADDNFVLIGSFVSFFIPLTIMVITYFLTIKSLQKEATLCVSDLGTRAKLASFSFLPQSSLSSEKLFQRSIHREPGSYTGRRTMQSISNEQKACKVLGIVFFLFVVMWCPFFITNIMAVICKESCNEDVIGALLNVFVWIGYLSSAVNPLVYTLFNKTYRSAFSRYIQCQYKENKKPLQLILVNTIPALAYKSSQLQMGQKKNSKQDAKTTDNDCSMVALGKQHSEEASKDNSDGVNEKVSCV
5-HT7, sequence (P34969 whole entry, species assumed): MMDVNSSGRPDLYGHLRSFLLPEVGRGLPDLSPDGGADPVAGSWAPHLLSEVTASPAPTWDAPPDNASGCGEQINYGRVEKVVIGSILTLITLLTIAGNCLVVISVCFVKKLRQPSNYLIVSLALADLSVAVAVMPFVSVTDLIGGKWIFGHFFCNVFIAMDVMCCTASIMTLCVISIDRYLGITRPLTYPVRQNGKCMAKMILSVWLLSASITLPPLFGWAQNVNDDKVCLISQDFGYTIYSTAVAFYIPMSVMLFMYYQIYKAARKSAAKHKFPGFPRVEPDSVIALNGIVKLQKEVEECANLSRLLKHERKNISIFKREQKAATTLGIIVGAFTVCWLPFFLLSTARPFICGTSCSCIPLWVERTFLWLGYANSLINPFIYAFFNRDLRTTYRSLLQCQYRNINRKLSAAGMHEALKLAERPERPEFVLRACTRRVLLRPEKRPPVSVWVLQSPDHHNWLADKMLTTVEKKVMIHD
5-HT6, sequence (P50406 whole entry, species assumed): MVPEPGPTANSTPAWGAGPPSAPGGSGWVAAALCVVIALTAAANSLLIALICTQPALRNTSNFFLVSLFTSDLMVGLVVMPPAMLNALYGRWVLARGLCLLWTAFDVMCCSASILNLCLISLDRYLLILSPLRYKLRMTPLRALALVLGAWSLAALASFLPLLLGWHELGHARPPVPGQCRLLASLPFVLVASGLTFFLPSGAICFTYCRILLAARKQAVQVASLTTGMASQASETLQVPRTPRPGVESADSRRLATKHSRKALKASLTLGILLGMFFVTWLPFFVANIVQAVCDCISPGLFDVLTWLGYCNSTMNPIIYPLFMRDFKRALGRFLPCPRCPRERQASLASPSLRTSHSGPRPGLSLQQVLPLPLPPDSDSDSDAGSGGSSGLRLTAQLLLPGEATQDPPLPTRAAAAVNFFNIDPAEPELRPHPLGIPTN

Structure (SMILES): CN(C)CCc1c[nH]c2ccccc12 [DMT, N,N-dimethyltryptamine]
- 2.1 Experience of amazement. [1, 16]: 3 and 5 and 4
- 2.4 Experience of ecstasy. [1, 16]: 3 and 5 and 4
- 2.5 Sense of awe or awesomeness. [1, 16]: 3 and 5 and 4
- 2.6 Feelings of joy. [1, 16]: 3 and 4 and 5
- 4.2 Feeling that you could not do justice to your experience by describing it in words. [1, 16]: 4 and 3 and 5
- 4.3 Feeling that it would be difficult to communicate your own experience to others who have not had similar experiences. [1, 16]: 3 and 4 and 5
- Ineffability, mean participant score (MEQ30 dimension) [1, 17]: 5.00 (4×) and 4.00 (3×) and 3.00 (2×)
- Mysticism, mean participant score (MEQ30 dimension) [1, 17]: 2.53 and 3.33 and 5.00 and 3.87 and 4.00 (2×) and 4.73 and 1.33 and 3.60
- Positive Mood, mean participant score (MEQ30 dimension) [1, 17]: 4.33 (2×) and 3.50 (2×) and 4.83 and 4.50 and 2.67 (2×) and 5.00
- Transcendence, mean participant score (MEQ30 dimension) [1, 17]: 2.83 and 5.00 (2×) and 3.83 and 4.00 and 1.50 and 2.67 and 3.50
- Ineffability, Mean (MEQ30 dimension) [1, 18]: 4.22
- Mysticism, Mean (MEQ30 dimension) [1, 18]: 3.60
- Positive Mood, Mean (MEQ30 dimension) [1, 18]: 3.93
- Transcendence, Mean (MEQ30 dimension) [1, 18]: 3.35
- participants with a score >= 60% of the maximum score on the Ineffability subscale ([1]; nine participants): 100%
- participants with a score >= 60% of the maximum score on the Mystical and Positive Mood subscales ([1]; nine participants): 78%
- participants with a score >= 60% of the maximum score on the Transcendence of Time and Space subscale ([1]; nine participants): 55%
- participants with a score >= 75% of the maximum score on the Ineffability subscale ([1]; nine participants): 78%
- participants with a score >= 75% of the maximum score on the Transcendence of Time and Space subscale ([1]; nine participants): 44%
- participants with a score >= 75% of the maximum scores on the Mystical and Positive Mood subscales ([1]; nine participants): 55%
- participants with a score of greater than or equal to 60% on at least one MEQ30 subscale ([1]; nine participants): all participants
- Ineffability, total score (MEQ30 subscale) [1, 19]: 15 (4×) and 12 (3×) and 9 (2×)
- Mysticism, total score (MEQ30 subscale) [1, 19]: 38 and 50 and 75 and 58 and 60 (2×) and 71 and 20 and 54
- Positive Mood, total score (MEQ30 subscale) [1, 19]: 26 (2×) and 21 (2×) and 29 and 27 and 16 (2×) and 30
- Transcendence, total score (MEQ30 subscale) [1, 19]: 17 and 11 and 30 (2×) and 23 and 24 and 9 and 16 and 21
- mean participant score, of the maximum score ([2]; Fear, Physical Distress, Insanity, Isolation, Death, and Paranoia subscales): less than 6%
- mean participant score on each of the CEQ subscales, of the maximum possible score ([2]; each CEQ subscale): ≤ 10%
- Death, Mean (CEQ dimension) [2, 18]: 0.44
- Fear, Mean (CEQ dimension) [2, 18]: 1.889
- Grief, Mean (CEQ dimension) [2, 18]: 3.11
- Insanity, Mean (CEQ dimension) [2, 18]: 0.89
- Isolation, Mean (CEQ dimension) [2, 18]: 0.78
- Paranoia, Mean (CEQ dimension) [2, 18]: 0.44
- Physical Distress, Mean (CEQ dimension) [2, 18]: 0.89
- Death (CEQ dimension score) [2, 20]: 1 (2×) and 2 and 0 (6×)
- Fear (CEQ dimension score) [2, 20]: 0 (5×) and 5 (3×) and 2
- Grief (CEQ dimension score) [2, 20]: 1 and 6 (2×) and 0 (4×) and 12 and 3
- Insanity (CEQ dimension score) [2, 20]: 0 (5×) and 3 and 2 (2×) and 1
- Isolation (CEQ dimension score) [2, 20]: 0 (7×) and 3 and 4
- Paranoia (CEQ dimension score) [2, 20]: 0 (7×) and 2 (2×)
- Physical Distress (CEQ dimension score) [2, 20]: 1 (3×) and 5 and 0 (5×)
- Ki [3]: 0.129 µM
- Ki [4]: 0.039 µM
- Ki [5]: 0.517 µM
- Ki [6]: 0.127 µM
- Ki [7]: 2.14 µM
- Ki [8]: 0.464 µM
- Ki [9]: 0.206 µM
- binding to the sigma-1 receptor [10]: binds to the sigma-1 receptor
- binding to TrkB [11]: do not bind TrkB directly
- half life from the blood ([12]; blood): less than 16 minutes
- half life from the brain ([12]; brain): less than six

Structure (SMILES): CN(C)CCc1c[nH]c2cccc(O)c12 [Psilocin, 4-hydroxy-N,N-dimethyltryptamine]
- Ki [3]: 0.22 µM
- Ki [4]: 0.0364 µM
- binding to the sigma-1 receptor [10]: no affinity

Structure (SMILES): CC(=O)Oc1cccc2[nH]cc(CCN(C)C)c12 [Psilacetin, 4-acetoxy-N,N-dimethyltryptamine]
- duration of subjective effects [13]: 4 to 8 h

Structure (SMILES): CNC1(c2ccccc2Cl)CCCCC1=O (stereo not shown) [Ketamine]
- binding to TrkB [11]: does directly bind to TrkB

Structure (SMILES): O=C1Nc2ccc(Cl)cc2C(c2ccccc2Cl)=NC1O (racemic) [Lorazepam, ±7-chloro-5-(2-chlorophenyl)-1,3-dihydro-3-hydroxy-2H-1,4-benzodiazepin-2-one]
- time of peak plasma concentrations (Tmax) ([14]; after oral administration): about 2 hours
- half-life in human plasma ([14]; human plasma): about 12 hours

Structure (SMILES): N[C@@]1(c2ccccc2Cl)CCC[C@@H](O)C1=O [2R,6R-hydroxynorketamine]
- binding to TrkB [11]: binds to TrkB
- affinity to NMDA receptors [15]: low affinity
